According to PubChem BioAssay AID179 (DTP/NCI, 2004):
Calls of active or inactive are those of the source.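 The calls were made as follows: active = compounds giving half or more protection of infected cells from virus-caused growth loss, again on retest; inactive = the rest.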 Where a SMILES comes first, the peptide text is derived from it. The star is where a group is joined. Cbz = O=C(OCc1ccccc1)*

Test system: CEM cells HIV-1 protection, formazan growth assay
Test: NCI AIDS Antiviral Assay
Details: for IC50: measured here: growth of uninfected CEM cells
Procedure, shortened: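 Protection of CEM cells against HIV-1 was scored from cell growth (soluble formazan) across five concentrations, with parallel uninfected cells. Lack of protection may reflect toxicity.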

Row | Compound | outcome | EC50 [µM] | IC50 [µM]
1 | CC(C)(O)CCC(O)[C@](C)(O)C1CCC2(O)C3=CC(=O)[C@@H]4C[C@@H](O)[C@@H](O)C[C@]4(C)C3CC[C@]12C (some centres undefined) | inactive |  | 
2 | CCOC(=O)CCC(NC(=O)c1ccc(OCc2nc3cc(C(F)(F)F)ccc3nc2-c2ccccc2)cc1)C(=O)OCC (centres undefined) |  | > 200 | 27.5
3 | C[n+]1c(-c2ccc(/C=N/Nc3ccnc(N/N=C/c4ccc(-c5cn6ccsc6[n+]5C)cc4)n3)cc2)cn2ccsc21 |  | 11.5 | 41.7
4 | NS(=O)(=O)c1ccc(Nc2c3ccccc3nc3c(C(=O)NCCCN(CCO)CCO)cccc23)cc1 |  | > 200 | 9.33
5 | O=C(Nc1nccs1)c1c(O)nc2sccn2c1=O |  | > 200 | > 200
6 | COC1[C@H](NC(=O)OC(C)(C)C)C(=O)N1Cc1ccccc1 (some centres undefined) | inactive |  | 
7 | CCCCCCCCCCCC1=C(NCCS)C(=O)C=C(NCCS)C1=O |  | > 1.26 | > 1.26
8 | O=C1/C(=N\O)c2ccccc2S1(=O)=O | inactive |  | 
9 | Cc1cn([C@@H]2O[C@H](CO[Si](C)(C)C(C)(C)C)[C@]3(O[C@H]3C(=O)NN)[C@H]2O[Si](C)(C)C(C)(C)C)c(=O)[nH]c1=O |  | > 200 | 3.63
10 | Nc1ccccc1C(=O)N=Nc1c(O)[nH]c2ccccc12 |  | > 200 | > 200
11 | CCCCCCCCCCCCCC1CCC(CC)N1 (centres undefined) |  | > 331 | > 331
12 | COc1ccc(/C=C2\Cc3ccccc3C2=O)cc1 |  | > 20 | > 20
13 | Brc1ccc2c(c1)[C@H]1CCc3c([nH]c4ccccc34)[C@H]1N2 |  | > 200 | 25.7
14 | CC1(Cl)CCC2(CC(Br)=CC3OC32C)CC1Br (centres undefined) | inactive |  | 
15 | CC(C)[C@H]1CO[C@@H]2O[C@H](C)C(C)C(=O)N21 (some centres undefined) |  | > 1170 | > 1170
16 | Cc1cc(S(=O)(=O)Nc2nc(N)nc(N(C)C)n2)c(SCC(=O)O)cc1Cl |  | > 200 | > 200
17 | CNC(=O)CNC(=O)CCC(=O)OC |  | > 200 | > 200
18 | CNC(=O)N1CN(c2ccccc2)C2(CCN(CCCC3(c4ccc(F)cc4)OCCO3)CC2)C1=O |  | > 200 | 38.9
19 | O=C(c1ccccc1)c1ccc2cccc(O)c2n1 |  | > 75.9 | 50.1
20 | CONC(C)=O |  | > 200 | > 200
21 | OC(Cc1cccc2ccccc12)CN1CCC(c2ccccc2)CC1 (centres undefined) |  | > 93.3 | 28.8

Row | Compound | outcome | EC50 [µM] | IC50 [µM]
22 | CCOC(=O)c1cc2c(ccc3cc(C(=O)OCC)[nH]c32)[nH]1 |  | > 200 | > 200
23 | O=C1c2ccccc2C2NCCCN12 (centres undefined) | inactive |  | 
24 | O=C(N1CCCCC(Cl)(Cl)C1=O)C(Cl)(Cl)Cl |  | > 759 | > 759
25 | COCCOCCOC(=O)C(CO)(CC(CO)(C(C)=O)C(=O)OCCOCCOC)C(C)=O (centres undefined) |  | > 200 | > 200
26 | CCCCCOCC(=O)OC |  | > 200 | 112
27 | COC12C=CC(CC1)c1c2c(O)c2nc(C)c(C)nc2c1O (centres undefined) |  | > 200 | 3.16
28 | COc1ccc(/C=C/C(=O)NCC(NC(=O)/C=C/c2ccc(OC)c(OC)c2)C(=O)O)cc1OC (centres undefined) |  | > 200 | > 200
29 | COc1ccccc1C(=O)OCC1CCCN2CCCCC12 (centres undefined) |  | > 200 | 27.5
30 | CC(=O)OCCCC(NC(=O)OC(C)(C)C)C(=O)NC(CCCOC(C)=O)C(=O)NC(Cc1ccc([N+](=O)[O-])cc1)C(=O)NCC(=O)OCc1ccccc1 (centres undefined) |  | > 200 | 16.2
31 | COC(F)(F)C12CC3CC(CC(C3)C1)C2 | inactive |  | 
32 | N#CC1(C#N)C(C#N)(C#N)C12CCCC2 |  | > 20 | 10.5
33 | CC1=NC2C(=O)N(C)C(=O)N(C)C2n2c(O)ccc21 (centres undefined) |  | > 2 | > 2
34 | Oc1[nH]c2ccccc2c1N=NC(=S)NCc1ccccn1 |  | > 2 | 0.0295
35 | CSC1=NC(=O)CCN1C1OCC(OC(C)=O)C(OC(C)=O)C1OC(C)=O (centres undefined) |  | > 200 | 105
36 | COc1ccc2c(c[n+](C)c3c4cc5c(cc4ccc23)OCO5)c1OC |  | > 3.24 | 0.372
37 | CCCC(=O)Nc1ccc(O)c2c1C1CCCCCC21 (centres undefined) |  | > 200 | 102
38 | CCOC(=O)c1sc2nc(SC)nc3c2c1NCN3c1ccccc1Cl |  | > 200 | > 200
39 | COc1ccc2nc3ccc(OC)cc3c(SCCCl)c2c1 | inactive |  | 
40 | O=C(/C=C/c1cccs1)c1ccc(C(=O)/C=C/c2cccs2)cc1 |  | > 200 | 45.7
41 | COC1(OC)CC2OC1C1N=NN(C(=O)OC(C)(C)C)C21 (centres undefined) |  | > 33.1 | > 33.1
42 | O=c1n(-c2ccccc2)c(=O)n2n1C1CC3c4ccccc4C1C2C31CC1 (centres undefined) |  | > 35.5 | > 35.5

Row | Compound | outcome | EC50 [µM] | IC50 [µM]
43 | Cn1c(=O)c2c(c3c(c(=O)n(C)c(=O)n3C)n2Cc2ccccc2)n(C)c1=O |  | > 93.3 | > 93.3
44 | CN1C(=O)C2(C=CC(O)CC2)c2ccccc21 (centres undefined) |  | > 200 | > 200
45 | NC(Cc1ccc(S(=O)(=O)O)cc1)C(=O)NC(CCCCNC(=O)NCCCCC(NC(=O)C(N)Cc1ccc(S(=O)(=O)O)cc1)C(=O)NC(Cc1ccc(S(=O)(=O)O)cc1)C(=O)O)C(=O)NC(Cc1ccc(S(=O)(=O)O)cc1)C(=O)O (centres undefined) |  | > 100 | > 100
46 | O=C(COc1ccccc1Cl)N1N=C(c2ccccc2)CC1(O)c1ccccc1 (centres undefined) |  | > 24.5 | > 24.5
47 | Cc1ccccc1-n1c(=S)n(-c2ccccn2)c2nc3ccccc3nc1/c2=N/Nc1ccccn1 |  | > 162 | 
48 | Cc1ccc2c(c1)C(=O)CC=C(C(=O)O)N2 |  | > 200 | > 200
49 | c1ccc(-c2cc(-c3cc(-c4ccccc4)n(-c4ccccc4)n3)nn2-c2ccccc2)cc1 |  | > 100 | > 100
50 | COc1cccc(/C=N/NC(=O)c2ccccc2[O-])c1[O-].[OH3+].[Pd+2] |  | > 200 | 1.26
51 | CCOC(=O)CCC(NC(=O)c1ccc(Nc2cnc3cc(C(F)(F)F)ccc3n2)cc1)C(=O)OCC (centres undefined) |  | > 200 | 191
52 | Cc1cc(C)nc(NC(=O)Nc2ccccc2)c1 |  | > 200 | > 200
53 | O=CCOCc1cc2c(cc1Br)OCO2 |  | > 200 | 5.25
54 | Cn1c2ccccc2c(=NNc2ccccc2C(=O)O)c2ccccc21 |  | > 200 | 19.5
55 | O=C1Nc2ccc(Cl)c(I)c2C1=O |  | > 61.7 | 35.5
56 | COCCNC(=O)C1C(=O)C(=O)N(CCOC)C1=O (centres undefined) | inactive |  | 
57 | O=P1(c2ccccc2)C=C(c2ccccc2)NC(c2ccccc2)=C1 | inactive |  | 
58 | CC(=O)N1C(NN(C)C)CCN1c1ccccc1 (centres undefined) |  | > 200 | 32.4
59 | CCOC(=O)C(C)NC(=O)C(C)NC(=O)C(C)NC(=O)C(C)NC(=O)C(C)NC(=O)C(C)NC(=O)C(C)NC(=O)OCc1ccccc1 (centres undefined) (Cbz-AAAAAAA-OEt; configuration not given here) |  | > 200 | > 200
60 | O=S1Cc2ccccc2CSS1 (centres undefined) | inactive |  | 
61 | CCCCc1ccc(C(=O)O)nc1 | inactive |  | 
62 | CC1(C)C/C(=N/O)c2c(nc3ccc4ccccc4c3c2-c2ccc(Cl)cc2)C1 |  | > 100 | 37.2
63 | Cc1cc2occ(S(=O)(=O)NC(=O)Nc3ccc(Cl)cc3)c(=O)c2c(=O)o1 |  | > 200 | 151

Row | Compound | outcome | EC50 [µM] | IC50 [µM]
64 | CC1(C)N([O-])[N+](=O)C1(C)Br (centres undefined) |  | > 200 | > 200
65 | CC(C)=CCc1c(-c2ccc(O)cc2O)oc2c3c(cc(O)c2c1=O)OC(C)(C)C=C3 |  | > 17.4 | 13.8
66 | O=C1C=CC(=CC=C2C=CN(CCCCCCCCCCC(=O)NCCCCCCCCCCCC(=O)O)C=C2)C=C1 | inactive |  | 
67 | Cc1cc(=O)[nH]c(NNC(C#N)c2c(O)ccc3ccccc23)n1 (centres undefined) |  | > 16.2 | 1.07
68 | O=C(Nc1ccc(C2=NCCN2)cc1)c1ccc(C(=O)Nc2ccc(C3=NCCN3)cc2)c(O)c1 |  | 55 | 91.2
69 | COc1ccc(/C=C/C(=O)c2c(-c3ccccc3)nn(C)c(=O)c2N2CC2C)cc1 (centres undefined) |  | > 64.6 | 22.4
70 | CN1C(OCc2ccccc2)c2c(ccc3c2OCO3)C2C=Cc3cc4c(cc3C21)OCO4 (centres undefined) |  | > 11.7 | 0.676
71 | Cc1cn(C2CCC(COP(=O)(OCC(=O)c3ccccc3)OCC(=O)c3ccccc3)O2)c(=O)[nH]c1=O (centres undefined) |  | 19.5 | > 200
72 | CCOC(=O)C1=CNN=CC12C(=O)C(C(=O)OCC)CC2C(=O)OCC (centres undefined) |  | > 245 | > 245
73 | CCCNC(=O)Sc1ccccc1C(=O)NCCC(N)=O |  | > 2.63 | 
74 | O=C1OCc2c1cc1ccc(O)c(OC3OC(CO)C(O)C(O)C3O)c1c2-c1ccc2c(c1)OCO2 (centres undefined) |  | > 501 | > 501
75 | COc1nccnc1NS(=O)(=O)c1ccc(N)cc1 |  | > 200 | > 200
76 | CCCCCCCCN(/N=C/c1c2c(O)c3c(O)c(C)c4c(c3c1O)C(=O)C(C)(O/C=C/C(OC)C(C)C(OC(C)=O)C(C)C(O)C(C)C(O)C(C)/C=C/C=C(C)C(=O)N2)O4)C1OC(COC(=O)c2ccccc2)C(OC(=O)c2ccccc2)C1OC(=O)c1ccccc1 (centres undefined) |  | > 200 | 10.5
77 | N#C/C(=C\c1ccc(O)c(O)c1)C(=O)NCCN1CCN(C(=O)/C(C#N)=C/c2ccc(O)c(O)c2)CC1 |  | > 200 | 26.3
78 | CC(NC(C)(C)C)C(=O)c1cccc(Cl)c1 (centres undefined) |  | > 200 | > 200
79 | COc1ccc(SSc2ccc(OC)cc2C(=O)O)c(C(=O)O)c1 |  | > 200 | > 200
80 | O=C([O][Bi]([c]1ccccc1)[c]1ccccc1)C(F)(F)F |  | > 20 | 15.1
81 | COC(=O)C(C(=O)C(=O)Nc1cccc(O)c1)c1nc2ccc(Cl)cc2[nH]c1=O (centres undefined) |  | > 87.1 | 85.1
82 | C(=N\NC1=NCCN1)/c1cccc2cc3ccncc3nc12 |  | > 200 | 0.891
83 | CC(O)=NC(Cc1ccc2ccccc2c1)C(O)=NC(Cc1ccc(Cl)cc1)C(O)=NC(Cc1c[nH]c2ccccc12)C(O)=NC(CO)C(O)=NC(Cc1ccc(O)cc1)C(O)=NC(CCCN=C(N)N)C(O)=NC(CC(C)C)C(O)=NC(CCCN=C(N)N)C(=O)N1CCCC1C(O)=NC(C)C(=N)O (centres undefined) |  | > 87.1 | > 87.1
84 | C=C(c1cc(Br)c(OC)c(C(=O)OC)c1)c1cc(Br)c(OC)c(C(=O)OC)c1 |  | > 100 | > 100
